The target of test [1] is T1, human GABA A α5β3γ2 (Homo sapiens, UniProt P18507+P31644). In words: [3H]flumazenil competition binding, HEK293 cells expressing human α5β3γ2. Also noted: expressed in transfected cells; host or cells: HEK293.
The target of test [2] is T2, human GABA A α1β2/3γ2 (Homo sapiens, UniProt P14867+P18507). In words: [3H]flumazenil competition binding, HEK293 cells expressing human α1β2/3γ2. Particulars: for Ki: [3H]flumazenil competition, human α1β2/3γ2, read-out: hKi α1; for hKi α1/hKi α5: binding selectivity ratio. Set-up: expressed in transfected cells; host or cells: HEK293.
Test [3] addresses T3, human GABA A α2β3γ2 (Homo sapiens, UniProt P18507+P47869). In words: [3H]flumazenil competition binding, HEK293 cells expressing human α2β3γ2. Set-up: expressed in transfected cells; host or cells: HEK293. The settings on record: for Ki: [3H]flumazenil competition, human α2β3γ2, read-out: hKi α2; for hKi α2/hKi α5: binding selectivity ratio.
The target of test [4] is T4, human GABA A α3β3γ2 (Homo sapiens, UniProt P18507+P34903). In words: [3H]flumazenil competition binding, HEK293 cells expressing human α3β3γ2. Set-up: expressed in transfected cells; host or cells: HEK293. The settings on record: for Ki: [3H]flumazenil competition, human α3β3γ2, read-out: hKi α3; for hKi α3/hKi α5: binding selectivity ratio.
Test [5] deals with T1, human GABA A α5β3γ2. In words: Two-microelectrode voltage clamp, modulation of GABA EC10 response in Xenopus oocytes, α5β3γ2. Set-up: expressed in transfected cells; host or cells: Xenopus laevis oocytes. Particulars: % change of submaximal (EC10) response to GABA at 30×Ki. It counts as cell-based. On the procedure: (§1) Table 2b. […] Effect at human GABA A α5 receptors: % change of a submaximal (EC10) response to GABA determined at 30×Ki value from the flumazenil binding assay.
(§2) Subtype-selective effects were determined on cloned receptors expressed in Xenopus oocytes. Human recombinant GABA A receptors were expressed in Xenopus laevis oocytes. Current responses were evoked in two-microelectrode voltage-clamp condition by applying an EC10 of GABA before and during the co-application of the test compound. Response amplitudes in the presence of the test compound are expressed as percentage of the amplitudes before drug addition.

Test [6] deals with T2, human GABA A α1β2/3γ2. In words: Two-microelectrode voltage clamp, modulation of GABA EC10 response in Xenopus oocytes, α1β2/3γ2. Set-up: expressed in transfected cells; host or cells: Xenopus laevis oocytes. Format: cell-based. Particulars: % change of EC10 GABA response at 3 μM or at 30×Ki if Ki below 0.1 μM.
Test [7] has as its target T3, human GABA A α2β3γ2. In words: Two-microelectrode voltage clamp, modulation of GABA EC10 response in Xenopus oocytes, α2β3γ2. Format: cell-based. Also noted: expressed in transfected cells; host or cells: Xenopus laevis oocytes. The settings on record: % change of EC10 GABA response at 3 μM or at 30×Ki if Ki below 0.1 μM. On the procedure:
as §1, §2

Test [8] deals with T4, human GABA A α3β3γ2. In words: Two-microelectrode voltage clamp, modulation of GABA EC10 response in Xenopus oocytes, α3β3γ2. It counts as cell-based. Set-up: expressed in transfected cells; host or cells: Xenopus laevis oocytes. The settings on record: % change of EC10 GABA response at 3 μM or at 30×Ki if Ki below 0.1 μM. On the procedure:
as §1, §2

The values below come from patent US8835425B2, “Use of selective GABA A α5 negative allosteric modulators for the treatment of central nervous system conditions” (Hoffmann-La Roche Inc., priority 2010, dated 2014).

Where two headings read alike, the source gives them in different places.

With `Cc1ncn2c1Cn1nc(CN3CCCC3=O)nc1-c1cc(Br)ccc1-2` [Compound 8591, 3-Bromo-10-methyl-6-(2-oxo-pyrrolidin-1-ylmethyl)-9H-imidazo[1,5-a][1,2,4]triazolo[1,5-d][1,4]benzodiazepine], the Ki in test [1] was 7.1 nM; in test [2], 624 nM; in test [3] it was 669 nM; in test [4], 515 nM. In addition, the “hKi α1/hKi α5” value in test [2] was determined as 88. For the same compound, the “hKi α2/hKi α5” value in test [3] stood at 94. Further, in test [4], the “hKi α3/hKi α5” value came to 73. Also, the “Efficacy GABA A α5β3γ2” value in test [5] was −31%. Moreover, the “Efficacy GABA A α1β2/3γ2” value in test [6] is “+4%”. Further, in test [7], the “Efficacy GABA A α2β3γ2” value is on record as −7%. Moreover, the “Efficacy GABA A α3β3γ2” value in test [8] is “+23%”.

With `Cc1onc(-c2ccccc2)c1COc1ccc(C(=O)N2CC3(COC3)C2)cn1` [Compound Q1, [6-(5-Methyl-3-phenyl-isoxazol-4-ylmethoxy)-pyridin-3-yl]-(2-oxa-6-aza-spiro[3.3]hept-6-yl)-methanone], in test [1] ([3H]flumazenil competition, human α5β3γ2, read-out: hKi α5), the Ki came to 15.1 nM. Further, in test [2], the Ki turned out to be 633 nM and the “hKi α1/hKi α5” value is listed as 42. Besides, in test [3], the Ki came to 438 nM and the “hKi α2/hKi α5” value came out at 29. In test [4], the Ki was determined as 400 nM and the “hKi α3/hKi α5” value is given as 26. The “Efficacy GABA A α5β3γ2” value in test [5] was −35%. Besides, the “Efficacy GABA A α1β2/3γ2” value in test [6] is −11%. For the same compound, the “Efficacy GABA A α2β3γ2” value in test [7] was −18%. In addition, the “Efficacy GABA A α3β3γ2” value in test [8] was −17%.
